Assay: molar heat capacity at constant pressure
Settings: 101.33 kPa, Crystal 1, Vacuum adiabatic calorimetry

[Al+3].[Al+3].[Co+2].[O-2].[O-2].[O-2].[O-2] [aluminium cobalt oxide]
Settings | molar heat capacity at constant pressure [J/K/mol]
146.83 K | 57.16
147.05 K | 57.28
149.96 K | 58.88
150 K | 58.9
150.67 K | 59.3
152.88 K | 60.51
154.53 K | 61.45
155.79 K | 62.12
158.38 K | 63.57
158.7 K | 63.68
160 K | 64.37
161.62 K | 65.3
162.25 K | 65.67
164.55 K | 66.89
166.11 K | 67.74
167.47 K | 68.46
169.98 K | 69.8
170 K | 69.81
170.39 K | 70.02
173.28 K | 71.53
173.86 K | 71.81
176.14 K | 73.02
177.74 K | 73.82
178.97 K | 74.47
180 K | 74.99
181.6 K | 75.79
181.77 K | 75.91
184.55 K | 77.27
185.41 K | 77.67
187.3 K | 78.65
189.19 K | 79.56
190 K | 79.97
190.03 K | 79.99
192.74 K | 81.28
192.91 K | 81.34
195.43 K | 82.61
196.6 K | 83.11
198.09 K | 83.83
200 K | 84.73
200.24 K | 84.85
200.74 K | 85.08
203.36 K | 86.29
203.85 K | 86.5
205.97 K | 87.49
207.42 K | 88.12
208.56 K | 88.63
210 K | 89.28
210.96 K | 89.71
211.13 K | 89.82
213.68 K | 90.9
214.47 K | 91.27
216.22 K | 92.07
217.95 K | 92.81
218.74 K | 93.14
220 K | 93.68
221.25 K | 94.2
221.4 K | 94.18
223.74 K | 95.23
224.82 K | 95.65
226.22 K | 96.27
228.21 K | 97.04
228.69 K | 97.25
230 K | 97.8
231.14 K | 98.26
231.58 K | 98.37
233.58 K | 99.23
234.92 K | 99.71
236.01 K | 100.16
238.24 K | 101.02
238.42 K | 101.09
240 K | 101.73
240.83 K | 102.05
241.54 K | 102.25
243.22 K | 102.92
244.81 K | 103.49
245.59 K | 103.81
247.96 K | 104.73
248.06 K | 104.72
250 K | 105.45
250.32 K | 105.57
251.29 K | 105.92
252.67 K | 106.55
254.51 K | 106.81
255.02 K | 106.86
257.35 K | 107.86
257.71 K | 108
259.68 K | 108.69
260 K | 108.81
260.89 K | 109.14
261.99 K | 109.47
264.06 K | 110.17
